For data set [1] the following is noted: EPA (USA) and EEA (UE); cited from earlier work.
In a further data set the test system is cheloid. Kind of data set: Cheloid therapy on wounds in the distal part of horse's limb. It counts as in vivo, horses. The following applies: composition versus Salicylic acid therapy. The source says:
Cheloid is a disturbance of the granulation tissue due to a hyperproliferation of the fibroblasts. These cells stop the mitogenic activity when enough extracellular matrix fills the wound crater. Collagen fibrils of the matrix start to retract anchoring the wounds edges to fibroblasts. When the collagen fibrils start to retract, fibroblasts stop to secrete the matrix (antimitogenic effect). Most of them undergo apoptosis (cell death without inducing an inflammatory reaction) and quiescence (sleeping fibroblasts), while only a small part undergo the transformation into myofibroblasts (which play a role in the last phases of the wound healing). Newly formed capillary vessels are absorbed and disappear in synchrony with the fibroblasts. Keratinocytes on the top of the healed area start to re-epithelialize the area and the process is complete: In horse, researchers have identified two orders of problems responsible for the high incidence of cheloid pathology: 1) exaggerated tension stimuli at the levels of the distal part of the horses legs, due too scarcity of muscle mass and hypodermal fat and 2) slow capacity of the keratinocytes to obtain the re-epithelialization of the granulated area maybe due to a scarcity of the signals responsible for the antimitogenic effects on fibroblasts. […]

Molecules are shown by their SMILES.

As for `C/C=C(\C)C(=O)O[C@H]1C[C@@H](OC(C)=O)[C@@]2(C(=O)OC)CO[C@H]3[C@@H](O)[C@@](C)([C@]45O[C@@]4(C)[C@@H]4C[C@H]5O[C@@H]5OC=C[C@@]54O)[C@H]4[C@]1(CO[C@]4(O)C(=O)OC)[C@@H]32` [Azadirachtin A], the class of toxicity entry in data set [1] is “IVth”.

On to `O=C(O)c1ccccc1O` [Salicylic acid, salicylic acid], for which the “time of healing / effectiveness in comparison of therapies” value in the data set with cheloid was “not as effective as the therapy with the present composition”.

These data come from patent publication US11376298B2, “Composition comprising natural substances having healing, repellent and biocidal properties for the treatment and the cure of external wounds” (priority 2004, dated 2022).
